Values after ≈ are worked out from the molar mass of the structure shown. Where two headings read alike, the source gives them in different places.
Tests used:
[1] = system: Klebsiella pneumonia ATCC 43816; assay: Minimal Inhibitory Concentration (MIC) broth dilution assay; assay type: cell-based; conditions: Klebsiella pneumoniae, read-out: MIC Klebsiella pneumoniae ATCC43816
Protocol: (§1) The antibacterial activity of the compounds of the present invention was evaluated against the commonly used quality control strain Escherichia coli ATCC 25922 and the rifampin-resistant mutant strain Klebsiella pneumonia ATCC 43816. Both were originally derived from human clinical samples and are available from ATCC (American Type Culture Collection). The in vitro potency of compounds to inhibit Escherichia coli (ATCC 25922) and Klebsiella pneumonia (ATCC 43816) growth was assessed by the MIC (Minimal Inhibitory Concentration) broth dilution method. Specifically compound dilutions were prepared from 10 mM DMSO stock solutions as follows: i) serial 2-fold dilution in 20 μL DMSO were prepared in a master plate (Greiner, Cat No: 651201), ii) 180 μL sterile distilled water was added to each aliquot and iii) 10 μL diluted compounds were transferred into a new assay plate (Costar, 3599).
(§2) Vials of each test microorganisms were maintained frozen in the vapor phase of a liquid nitrogen freezer. Single-use frozen vials of the two strains Escherichia coli ATCC 25922 (KWIKSTIK, 0335K) and Klebsiella pneumonia ATCC 43816, with predetermined CFU/mL, were taken out from the freezer, thawed at room temperature, and diluted in Cation-Adjusted Mueller Hinton Broth (CAMHB) to achieve a final inoculum of 5×10^5 CFU/mL. 90 μL bacteria containing broth was dispensed to the assay plate containing the pre-dispensed compound dilutions and mixed by pipetting 5 times.
(§3) Then the assay plates were incubated for 20 hours at 35° C. in ambient air. Following incubation, the MIC ([…]), the lowest concentration of drug that inhibits visible growth of the microorganism was read with the help of a magnification mirror and recorded.

[2] = system: Escherichia coli ATCC 25922; assay: as above; assay type: cell-based; conditions: read-out: MIC Escherichia coli ATCC 25922
Protocol: as §1, §2, §3

SMILES | MIC ([1]; ATCC43816, 20 h) [µg/mL] | MIC ([2]; ATCC25922, 20 h) [µg/mL] | MIC ([1]; ATCC43816, broth dilution in CAMHB, 5×10^5 CFU/mL, 20 hours at 35° C.) [µg/mL] | MIC ([2]; ATCC25922, broth dilution in CAMHB, 5×10^5 CFU/mL, 20 hours at 35° C.) [µg/mL]
O=C(Nc1ccc(S(=O)(=O)N2CCN(c3cc(C(F)(F)F)cc(Cl)n3)CC2)cc1)c1cccc(N2CCNCC2)c1 [Example 054, N-[4-[4-[6-chloro-4-(trifluoromethyl)-2-pyridyl]piperazin-1-yl]sulfonylphenyl]-3-piperazin-1-yl-benzamide] | 0.95 (≈ 1.56 µM) | 0.48 (≈ 0.788 µM) |  | 
NC1Cc2ccc(C(=O)Nc3ccc(S(=O)(=O)N4CCN(c5cc(C(F)(F)F)cc(Cl)n5)CC4)cc3)cc2C1 (stereo not shown) [Example 055, 2-Amino-N-[4-[4-[6-chloro-4-(trifluoromethyl)-2-pyridyl]piperazin-1-yl]sulfonylphenyl]indane-5-carboxamide] | 0.91 (≈ 1.57 µM) | 0.45 (≈ 0.776 µM) |  | 
NCc1ccc(O)c(C(=O)Nc2ccc(S(=O)(=O)N3CCN(c4cc(C(F)(F)F)cc(Cl)n4)CC3)cc2)c1 [Example 056, 5-(Aminomethyl)-N-[4-[4-[6-chloro-4-(trifluoromethyl)-2-pyridyl]piperazin-1-yl]sulfonylphenyl]-2-hydroxy-benzamide] | 3.8 (≈ 6.67 µM) | 3.8 (≈ 6.67 µM) |  | 
NCCC(N)C(=O)Nc1cccc(C(=O)Nc2ccc(S(=O)(=O)N3CCN(c4cc(C(F)(F)F)cc(Cl)n4)CC3)cc2)c1 (stereo not shown) [Example 057, N-[4-[4-[6-chloro-4-(trifluoromethyl)-2-pyridyl]piperazin-1-yl]sulfonylphenyl]-3-(2,4-diaminobutanoylamino)benzamide] | 2 (≈ 3.12 µM) | 1 (≈ 1.56 µM) |  | 
NCCCNCc1ccnc(C(=O)Nc2ccc(S(=O)(=O)N3CCN(c4cc(C(F)(F)F)cc(Cl)n4)CC3)cc2)c1 [Example 058, 4-[(3-Aminopropylamino)methyl]-N-[4-[4-[6-chloro-4-(trifluoromethyl)-2-pyridyl]piperazin-1-yl]sulfonylphenyl]pyridine-2-carboxamide] | 3.8 (≈ 6.21 µM) | 3.8 (≈ 6.21 µM) |  | 
NCCCNCc1cccc(C(=O)Nc2ccc(S(=O)(=O)N3CCN(c4cc(C(F)(F)F)cc(Cl)n4)CC3)cc2)n1 [Example 059, 6-[(3-Aminopropylamino)methyl]-N-[4-[4-[6-chloro-4-(trifluoromethyl)-2-pyridyl]piperazin-1-yl]sulfonylphenyl]pyridine-2-carboxamide] | 3.8 (≈ 6.21 µM) | 1.9 (≈ 3.1 µM) |  | 
NCCCNCc1cncc(C(=O)Nc2ccc(S(=O)(=O)N3CCN(c4cc(C(F)(F)F)cc(Cl)n4)CC3)cc2)c1 [Example 060, 5-[(3-Aminopropylamino)methyl]-N-[4-[4-[6-chloro-4-(trifluoromethyl)-2-pyridyl]piperazin-1-yl]sulfonylphenyl]pyridine-3-carboxamide] | 1.9 (≈ 3.1 µM) | 0.48 (≈ 0.784 µM) |  | 
NCCCNC1Cc2ccc(C(=O)Nc3ccc(S(=O)(=O)N4CCN(c5cc(C(F)(F)F)cc(Cl)n5)CC4)cc3)cc2C1 (stereo not shown) [Example 061, 2-(3-Aminopropylamino)-N-[4-[4-[6-chloro-4-(trifluoromethyl)-2-pyridyl]piperazin-1-yl]sulfonylphenyl]indane-5-carboxamide] | 1.1 (≈ 1.73 µM) | 0.53 (≈ 0.832 µM) |  | 
NCCCNC1CCc2ccc(C(=O)Nc3ccc(S(=O)(=O)N4CCN(c5cc(C(F)(F)F)cc(Cl)n5)CC4)cc3)cc21 (stereo not shown) [Example 062, 3-(3-Aminopropylamino)-N-[4-[4-[6-chloro-4-(trifluoromethyl)-2-pyridyl]piperazin-1-yl]sulfonylphenyl]indane-5-carboxamide] | 4.2 (≈ 6.59 µM) | 2.1 (≈ 3.3 µM) |  | 
COc1ccc(CN2CCC3CN(C)CC32)cc1C(=O)Nc1ccc(S(=O)(=O)N2CCN(c3cc(C(F)(F)F)cc(Cl)n3)CC2)cc1 (stereo not shown) [Example 063, N-[4-[4-[6-chloro-4-(trifluoromethyl)-2-pyridyl]piperazin-1-yl]sulfonylphenyl]-2-methoxy-5-[(5-methyl-2,3,3a,4,6,6a-hexahydropyrrolo[2,3-c]pyrrol-1-yl)methyl]benzamide] | 4.3 (≈ 6.2 µM) | 4.3 (≈ 6.2 µM) |  | 
NCCCNC1CCc2cc(C(=O)Nc3ccc(S(=O)(=O)N4CCN(c5cc(C(F)(F)F)cc(Cl)n5)CC4)cc3)ccc21 (stereo not shown) [Example 064, 1-(3-Aminopropylamino)-N-[4-[4-[6-chloro-4-(trifluoromethyl)-2-pyridyl]piperazin-1-yl]sulfonylphenyl]indane-5-carboxamide] | 4.2 (≈ 6.59 µM) | 2.1 (≈ 3.3 µM) |  | 
NCCCOc1ccc(C(=O)Nc2ccc(S(=O)(=O)N3CCN(c4cc(C(F)(F)F)cc(Cl)n4)CC3)cc2)cc1OCCCN [Example 065, 3,4-Bis(3-Aminopropoxy)-N-[4-[4-[6-chloro-4-(trifluoromethyl)-2-pyridyl]piperazin-1-yl]sulfonylphenyl]benzamide] | 0.52 (≈ 0.775 µM) | 0.26 (≈ 0.387 µM) |  | 
NCCCN1CCCC1c1cccc(C(=O)Nc2ccc(S(=O)(=O)N3CCN(c4cc(C(F)(F)F)cc(Cl)n4)CC3)cc2)c1 (stereo not shown) [Example 066, 3-[1-(3-Aminopropyl)pyrrolidin-2-yl]-N-[4-[4-[6-chloro-4-(trifluoromethyl)-2-pyridyl]piperazin-1-yl]sulfonylphenyl]benzamide] | 1 (≈ 1.54 µM) | 0.51 (≈ 0.783 µM) |  | 
NCCCN1CCC(c2cccc(C(=O)Nc3ccc(S(=O)(=O)N4CCN(c5cc(C(F)(F)F)cc(Cl)n5)CC4)cc3)c2)C1 (stereo not shown) [Example 067, 3-[1-(3-Aminopropyl)pyrrolidin-3-yl]-N-[4-[4-[6-chloro-4-(trifluoromethyl)-2-pyridyl]piperazin-1-yl]sulfonylphenyl]benzamide] | 1 (≈ 1.54 µM) | 0.51 (≈ 0.783 µM) |  | 
NC1CCN(CCc2ccc(C(=O)Nc3ccc(S(=O)(=O)N4CCN(c5cc(C(F)(F)F)cc(Cl)n5)CC4)cc3)cc2)C1 (stereo not shown) [Example 069, 4-[2-(3-Aminopyrrolidin-1-yl)ethyl]-N-[4-[4-[6-chloro-4-(trifluoromethyl)-2-pyridyl]piperazin-1-yl]sulfonylphenyl]benzamide] | 2.3 (≈ 3.61 µM) | 1.2 (≈ 1.88 µM) |  | 
NC1CCC12CN(CCc1ccc(C(=O)Nc3ccc(S(=O)(=O)N4CCN(c5cc(C(F)(F)F)cc(Cl)n5)CC4)cc3)cc1)C2 (stereo not shown) [Example 070, 4-[2-(7-Amino-2-azaspiro[3.3]heptan-2-yl)ethyl]-N-[4-[4-[6-chloro-4-(trifluoromethyl)-2-pyridyl]piperazin-1-yl]sulfonylphenyl]benzamide] | 2.4 (≈ 3.62 µM) | 1.2 (≈ 1.81 µM) |  | 
CN1CC2CCN(CCc3ccc(C(=O)Nc4ccc(S(=O)(=O)N5CCN(c6cc(C(F)(F)F)cc(Cl)n6)CC5)cc4)cc3)C2C1 (stereo not shown) [Example 071, N-[4-[4-[6-chloro-4-(trifluoromethyl)-2-pyridyl]piperazin-1-yl]sulfonylphenyl]-4-[2-(5-methyl-2,3,3a,4,6,6a-hexahydropyrrolo[2,3-c]pyrrol-1-yl)ethyl]benzamide] | 4.2 (≈ 6.2 µM) | 4.2 (≈ 6.2 µM) |  | 
O=C(Nc1ccc(S(=O)(=O)N2CCN(c3cc(C(F)(F)F)cc(Cl)n3)CC2)cc1)c1ccc(CCNCCCN2CCOCC2)cc1 [Example 073, N-[4-[4-[6-chloro-4-(trifluoromethyl)-2-pyridyl]piperazin-1-yl]sulfonylphenyl]-4-[2-(3-morpholinopropylamino)ethyl]benzamide] | 2.9 (≈ 4.17 µM) | 1.4 (≈ 2.01 µM) |  | 
NC1CC12CCN(CCc1ccc(C(=O)Nc3ccc(S(=O)(=O)N4CCN(c5cc(C(F)(F)F)cc(Cl)n5)CC4)cc3)cc1)C2 (stereo not shown) [Example 074, 4-[2-(2-Amino-5-azaspiro[2.4]heptan-5-yl)ethyl]-N-[4-[4-[6-chloro-4-(trifluoromethyl)-2-pyridyl]piperazin-1-yl]sulfonylphenyl]benzamide] | 2.8 (≈ 4.22 µM) | 2.8 (≈ 4.22 µM) |  | 
O=C(Nc1ccc(S(=O)(=O)N2CCN(c3cc(C(F)(F)F)cc(Cl)n3)CC2)cc1)c1ccc(CCN2C3CNCC2C3)cc1 [Example 075, N-[4-[4-[6-chloro-4-(trifluoromethyl)-2-pyridyl]piperazin-1-yl]sulfonylphenyl]-4-[2-(3,6-diazabicyclo[3.1.1]heptan-6-yl)ethyl]benzamide] |  |  | 5.5 (≈ 8.47 µM) | 2.7 (≈ 4.16 µM)
O=C(Nc1ccc(S(=O)(=O)N2CCN(c3cc(C(F)(F)F)cc(Cl)n3)CC2)cc1)c1cccc(CNCC2CCNCC2)c1 [Example 076, N-[4-[4-[6-chloro-4-(trifluoromethyl)-2-pyridyl]piperazin-1-yl]sulfonylphenyl]-3-[(4-piperidylmethylamino)methyl]benzamide] | 2.7 (≈ 4.15 µM) | 0.69 (≈ 1.06 µM) |  | 
NC1CC(CNCc2cccc(C(=O)Nc3ccc(S(=O)(=O)N4CCN(c5cc(C(F)(F)F)cc(Cl)n5)CC4)cc3)c2)C1 (stereo not shown) [Example 077, 3-[[(3-Aminocyclobutyl)methylamino]methyl]-N-[4-[4-[6-chloro-4-(trifluoromethyl)-2-pyridyl]piperazin-1-yl]sulfonylphenyl]benzamide] | 2.7 (≈ 4.24 µM) | 0.68 (≈ 1.07 µM) |  | 
NC1(C2CCN(Cc3cccc(C(=O)Nc4ccc(S(=O)(=O)N5CCN(c6cc(C(F)(F)F)cc(Cl)n6)CC5)cc4)c3)C2)CC1 (stereo not shown) [Example 079, 3-[[3-(1-Aminocyclopropyl)pyrrolidin-1-yl]methyl]-N-[4-[4-[6-chloro-4-(trifluoromethyl)-2-pyridyl]piperazin-1-yl]sulfonylphenyl]benzamide] | 2.2 (≈ 3.32 µM) | 1.1 (≈ 1.66 µM) |  | 

From patent publication US20260217672A1, “BENZAMIDE COMPOUNDS FOR TREATMENT OF BACTERIAL INFECTIONS” (Hoffmann-La Roche Inc., priority 2022, published 2026)
